In PMC11079024, “Identification of a family of species-selective complex I inhibitors as potential anthelmintics” (Nature Communications, 2024):
pIC50: −log10 of the molar value. Where “and” joins values, the source holds several entries; their conditions need not be identical. Identical values can stand only once. Like-named read-outs stand apart in the source and are kept apart here.

How the values were obtained:
adult H. polygyrus [1] = assay type: cell-based, Heligmosomoides polygyrus; details: for Worm viability score, individual worms (Worm1-Worm20): scale from 0 (dead) to 3 (motile)
Description: (§1) After either 24- or 72 h chemical treatment, worm viability was manually scored by an examiner using a scale from 0 (dead) to 3 (motile); DMSO was used as a negative control in both 24- and 72 h treatments. The percentage of affected worms (i.e., worms with a score equal to or lower than 1.5) in each biological replicate is shown; data are from two biological replicates. Within each boxplot, black horizontal lines denote group medians, boxes span from the 25th to the 75th percentile of each group’s distribution, and whiskers extend to the maximum and minimum values.
The eleven benzimidazole derivatives were tested at a concentration of 10 µM under aerobic conditions against L3 and adult H. polygyrus.
For the larval assay, mice feces were collected 2 weeks post-infection and eggs were isolated. The eggs were left on agar at room temperature in the dark for eight to 10 days to allow them to develop into L3. Next, 30–40 L3 were incubated (37 °C, 5% CO2) in the culture medium (RPMI 1640 medium + 1% pen./strep. + 5% amphotericin B) containing the derivatives in 96-well plate (Corning, USA) reaching a final volume of 250 µL for 24 h. For the adult drug screening assay, female NMRI mice were euthanized with CO2 and adult H. polygyrus were dissected out of the intestines. Subsequently, three worms were exposed to the culture medium (RPMI 1640 medium + 1% pen./strep. + 5% amphotericin B) with the derivatives (2 mL) in a 24-well plate (Corning, USA) for either 24 or 72 h. DMSO ( < 1%) served as a negative control in both assays. All conditions were tested in duplicates. Finally, 80 µL of hot water ( ~ 80 °C) for L3 and 500 µL of hot water (~80 °C) for adults were added to the wells to check for their viability under a microscope (Carl Zeiss, Germany). Larvae were categorized as being either alive or dead, depending on whether they moved or not. […] The whole experiment was performed two times i.e., two independent biological replicates for both life stages (L3s and adults) and exposure times (24 and 72 h).

adult H. polygyrus [2] = test: microbe, parasite or virus in culture; assay type: cell-based, Heligmosomoides polygyrus; details: anaerobic, 24 hours after treatment; for Percent Worms Affected: adult H. polygyrus, affected = score equal to or lower than 1.5; for # of Worms Affected: worms with score equal to or lower than 1.5; for Worm viability score, individual worms (Worm1-Worm20): scale from 0 (dead) to 3 (motile)
Description: To investigate the impact of the eleven benzimidazole derivatives under anaerobic conditions, an anaerobic chamber with an integrated incubator (Coy Laboratory Products, USA) was used. The same procedure was followed as described for the aerobic drug screening in adult H. polygyrus, but the incubation took place within the anaerobic chamber (37 °C, 85% N2, 10% CO2, 5% H2). Benzimidazole derivatives were tested at a concentration of 10 µM. For scoring, the plates had to be removed from the anaerobic chamber. The whole experiment was performed two times i.e., two independent biological replicates.
as §1, with “The activities of eleven benzimidazole derivatives were tested against adult H. polygyrus viability in vitro under aerobic (+, white boxplots) and anaerobic (–, coloured boxplots) conditions (see Methods). After” for “After”, “24-hour” for “either 24- or 72 h”, “aerobic” for “24-”, “anaerobic conditions; levamisole was used as a positive control in anaerobic conditions.” for “72 h treatments.”, “values. […]” for “values.”

C. elegans = C. elegans chemical screens of RIKEN NPD libraries at 50 μM (hit identification in KCN survival and development/viability assays); assay type: cell-based, Caenorhabditis elegans
[3] = molecular target: C. elegans (N2) complex I (NADH:ubiquinone oxidoreductase) (Caenorhabditis elegans, UniProt P24887+Q93873+Q94360); test: biochemical; assay type: biochemical; details: for Log IC50 C. elegans complex I: log10 of IC50 in µM, C. elegans mitochondria
C. elegans (N2) complex I (NADH:ubiquinone oxidoreductase), sequence (Q94360 17-199): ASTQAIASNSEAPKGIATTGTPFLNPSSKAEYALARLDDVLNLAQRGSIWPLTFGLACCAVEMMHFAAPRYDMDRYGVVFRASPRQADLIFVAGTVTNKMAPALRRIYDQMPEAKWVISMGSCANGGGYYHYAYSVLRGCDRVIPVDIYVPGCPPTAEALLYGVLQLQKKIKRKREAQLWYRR
C. elegans (N2) complex I (NADH:ubiquinone oxidoreductase), sequence (P24887 whole entry): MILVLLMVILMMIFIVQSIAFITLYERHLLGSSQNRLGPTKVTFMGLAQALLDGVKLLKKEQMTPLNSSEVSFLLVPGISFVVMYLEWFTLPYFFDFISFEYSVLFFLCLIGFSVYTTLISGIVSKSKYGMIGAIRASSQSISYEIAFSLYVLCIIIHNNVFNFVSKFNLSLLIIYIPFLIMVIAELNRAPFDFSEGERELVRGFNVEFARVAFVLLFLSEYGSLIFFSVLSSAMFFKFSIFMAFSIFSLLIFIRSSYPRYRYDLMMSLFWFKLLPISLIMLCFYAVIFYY
C. elegans (N2) complex I (NADH:ubiquinone oxidoreductase), sequence (Q93873 31-482): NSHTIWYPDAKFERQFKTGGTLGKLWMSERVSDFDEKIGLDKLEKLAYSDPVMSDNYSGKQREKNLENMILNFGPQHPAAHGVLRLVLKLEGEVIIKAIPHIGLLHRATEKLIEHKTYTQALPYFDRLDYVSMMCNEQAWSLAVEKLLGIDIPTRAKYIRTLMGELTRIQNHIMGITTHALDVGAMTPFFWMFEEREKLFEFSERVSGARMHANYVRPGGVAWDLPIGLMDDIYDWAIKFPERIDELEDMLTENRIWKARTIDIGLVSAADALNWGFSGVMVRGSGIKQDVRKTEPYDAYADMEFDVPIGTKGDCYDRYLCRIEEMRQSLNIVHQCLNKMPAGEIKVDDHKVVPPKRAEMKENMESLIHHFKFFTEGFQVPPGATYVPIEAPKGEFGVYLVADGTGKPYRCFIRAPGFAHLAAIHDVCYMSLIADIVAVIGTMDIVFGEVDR
Procedure, shortened: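 Complex I rate: initial linear slope of A600 over 15 min, expressed as percent of solvent control. Triple freeze-thawed mitochondria (0.2 mg/mL) in KPi pH 7.5, BSA 3 mg/mL, NADH 80 μM, decylubiquinone 60 μM, DCIP 160 μM, antimycin A, KCN.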

in vitro = details: human
L1 wild-type C. elegans [4] = test: microbe, parasite or virus in culture; details: Caenorhabditis elegans, read-out: C. elegans KCN Survival Assay LC50, estimated from fitted dose-response curves; mean of at least two biological replicates
[5] = molecular target: B. taurus (heart) complex I (Bos taurus, UniProt P03887+P17694+P42026); test: biochemical; assay type: biochemical; details: for pIC50: B. taurus heart mitochondria, read-out: B. taurus Complex I IC50; for Log IC50 B. taurus complex I: log10 of IC50 in µM, B. taurus mitochondria
B. taurus (heart) complex I, sequence (P03887 whole entry): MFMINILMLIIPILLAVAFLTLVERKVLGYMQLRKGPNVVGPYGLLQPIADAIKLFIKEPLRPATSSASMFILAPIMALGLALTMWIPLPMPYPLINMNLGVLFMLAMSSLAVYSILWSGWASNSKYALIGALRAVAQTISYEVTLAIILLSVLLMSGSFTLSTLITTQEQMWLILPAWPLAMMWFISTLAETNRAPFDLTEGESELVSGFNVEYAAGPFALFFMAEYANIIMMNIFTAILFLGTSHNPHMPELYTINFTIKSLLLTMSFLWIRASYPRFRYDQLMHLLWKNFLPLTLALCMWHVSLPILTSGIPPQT
B. taurus (heart) complex I, sequence (P17694 34-463): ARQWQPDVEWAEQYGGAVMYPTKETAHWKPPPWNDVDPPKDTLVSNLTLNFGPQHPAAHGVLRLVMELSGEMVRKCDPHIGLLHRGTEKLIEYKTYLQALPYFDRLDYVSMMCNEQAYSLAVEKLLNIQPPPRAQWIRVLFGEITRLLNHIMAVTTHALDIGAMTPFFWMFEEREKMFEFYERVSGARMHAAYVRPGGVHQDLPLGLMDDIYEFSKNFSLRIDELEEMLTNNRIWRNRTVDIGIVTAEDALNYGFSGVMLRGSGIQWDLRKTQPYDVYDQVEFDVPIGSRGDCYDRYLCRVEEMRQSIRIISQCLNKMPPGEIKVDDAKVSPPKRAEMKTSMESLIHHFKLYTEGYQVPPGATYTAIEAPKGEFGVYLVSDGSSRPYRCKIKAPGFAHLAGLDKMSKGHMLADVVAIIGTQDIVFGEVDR
B. taurus (heart) complex I, sequence (P42026 38-216): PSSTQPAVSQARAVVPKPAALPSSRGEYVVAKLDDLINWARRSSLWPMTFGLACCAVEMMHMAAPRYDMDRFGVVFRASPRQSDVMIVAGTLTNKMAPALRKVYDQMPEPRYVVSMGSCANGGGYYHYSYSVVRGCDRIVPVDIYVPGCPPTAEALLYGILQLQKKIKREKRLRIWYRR
Description: Six 8–10-week-old C57Bl/6 female mice (Charles River) were freshly dissected, and their livers and hearts collected into separate 1.5 mL microcentrifuge tubes. Organs were flash-frozen in liquid nitrogen and stored at −80 °C prior to use. The heart of a freshly slaughtered adult cow was obtained from a local abattoir (Peel Sausage Inc.), chopped into ~1-inch cubes and collected into 50 mL falcon tubes. Falcon tubes were flash-frozen in a container of dry ice and stored at −80 °C prior to use. Isolation of mitochondria from all mammalian tissue was carried out following the protocol described above. However, due to size, the initial homogenization of tissue was performed by 15 strokes in a dounce homogenizer (mouse heart) or with several 5 s pulses in small Nutribullet blender (cow heart). All mouse protocols for mouse care and dissection were reviewed and approved by the University of Toronto Animal Care Committee, in accordance with the Canadian Council on Animal Care.
The enzymatic activities of individual ETC complexes (I-IV) were assessed spectrophotometrically in isolated mitochondria using a Varioskan LUX Multimode plate reader (ThermoFisher Scientific). Mitochondrial pellets previously isolated were thawed on ice and resuspended in ice-cold isolation buffer (250 mM sucrose, 10 mM Tris (pH 7.5), 1 mM EDTA). The BCA assay (Walker, 1994) was used to quantify the protein concentration of mitochondria suspensions; solutions were diluted to a concentration of 0.2 mg/mL for use in all assays. For the complex I assay, mitochondria pellets were freeze-thawed on ice three times to increase enzyme accessibility. […] 20 μL mitochondria suspension was then added/mixed with a pipette to initiate the reaction. Immediately following the addition of mitochondria, absorbance was measured (complex I and II: 600 nm; complex III and IV: 550 nm) in 30 s intervals over 15 min. Enzymatic activity was determined in each reaction by plotting absorbance versus time and calculating the slope of the curve during the initial linear phase of the reaction. […] Percent activity of each complex was calculated by dividing the enzyme-specific activity of each well by the enzyme-specific activity of the corresponding solvent controls.
Chemical solutions were prepared in complex I assay buffer composed of 25 mM KPi buffer (pH 7.5), 3 mg/mL bovine serum albumin (BSA), 80 μM NADH, 60 μM decylubiquinone, 160 μM DCIP, 2 μM antimycin A and 2 mM KCN.
For preliminary screens of hit compounds, compounds were screened at 100 μM; data are the average of at least three biological replicates. The complex I and II activity assays were used for additional dose-response experiments. […] For dose responses of benzimidazole analogs, data represent the average of two biological replicates. For all other dose-responses, data represent the average of at least three biological replicates.

[6] = tested on: ben-1 mutant (ECA882) C. elegans; test: microbe, parasite or virus in culture; details: Caenorhabditis elegans
Description: Liquid development and viability assays were adapted from a previously established chemical screening protocol (Burns et al.)[24]. In brief, a saturated culture of E. coli HB101 was concentrated 2-fold in liquid NGM and 40 μL of this suspension was distributed to each well of a 96-well flat-bottom culture plate. 0.5 μL chemical solution (or DMSO alone) was added to each well (1% DMSO v/v) using either a multi-channel pipette or a pinning tool (V&P Scientific). L1 worms synchronized from an embryo preparation performed the day prior were diluted to a concentration of ~2 worms/μL in M9 buffer; 10 μL worm suspension was then added to each well. Culture plates were sealed with parafilm and placed in a plastic container lined with wet paper towels to prevent evaporation. Containers were then incubated for 6 days at 20 °C with shaking at 165 rpm. Following incubation, 300 μL M9 was added to each well to decrease the turbidity of the HB101-NGM suspension. Single images of each microplate well were then taken on a Nikon Ti Eclipse inverted microscope (Nikon NIS Elements AR). Images were processed using Python scripts to isolate worm-associated pixels from background. Scores of worm development and viability were determined as the sum of worm-associated pixels in each well. Development/viability scores for each well were divided by the development /viability scores for the corresponding DMSO controls, resulting in a relative viability value for each chemical. At least three biological replicates were performed for each dose-response experiment; relative viability values were averaged across replicates. […]
anthelmintics. a. Chemical structures of four commercial benzimidazole anthelmintics (e.g., albendazole, […]
Dose response of four commercial […]
elegans strains: N2, wild type; ECA882, deletion (ben-1); ECA917, F200Y (ben-1); ECA1075, F167Y (ben-1); ECA1080, E198A (ben-1); CB3474, G104D (ben-1). The colour-coded scale denotes the phenotypic outcome of drug treatment (e.g., motility or viability) relative to DMSO controls; white/pale- […]
death and arrested development. c. […]
benzimidazole anthelmintics (blue) were conducted in C. elegans development and viability assays for wild type (N2) and ben-1 mutant (ECA882) C. elegans (see Supplementary Date File 1).
All data used for generation of dose-response curves is the mean of at least three […]
Supplementary Figure 7 (continued). Davie et al.

L1 wild-type C. elegans [7] = tested on: L1 wild-type C. elegans
[8] = adult H. polygyrus, in vitro, aerobic, 24 hours, per biological replicate
[9] = adult H. polygyrus, in vitro, aerobic, 72 hours, per biological replicate
[10] = screened at 50 μM in triplicate, […], KCN = KCN survival assay, Dev. & Viability = development/viability assay
[11] = in vitro complex I dose response on C. elegans mitochondria, average of at least two biological replicates, fit in R (DRC), read-out: IC50 C. elegans complex I
[12] = wild-type C. elegans mitochondria, read-out: C. elegans Complex I IC50
[13] = read-out: C. elegans (ben-1) Development & Viability Assay LC50
[14] = read-out: C. elegans ben-1 log10 LC50 (converted)

Compound: CC(C)Cc1ccc(C(C)c2nc3ccccc3n2C)cc1 (racemic) [NPD87890]
- Worm viability score of individual worm, scale from 0 (dead) to 3 (motile) (adult H. polygyrus [1]): 1 and 0.5
- Percent Worms Affected (adult H. polygyrus [1]; adult H. polygyrus, aerobic, replicate 1, 24 hours after treatment, affected = score equal to or lower than 1.5): 100%
- # of Worms Affected (adult H. polygyrus [1]; [8]): 3 and 6
- Percent Worms Affected (worms with a score equal to or lower than 1.5) (adult H. polygyrus [1]; [8]): 50% and 100%
- Worm viability score of individual worm, scale from 0 (dead) to 3 (motile) (adult H. polygyrus [1]; adult H. polygyrus, in vitro, aerobic, 24 hours, single worms): 2 (2×) and 2.5 and 1.5 and 1 and 1.25 (5×)
- # of Worms Affected (adult H. polygyrus [1]; [9]): 5 and 6
- Percent Worms Affected (worms with a score equal to or lower than 1.5) (adult H. polygyrus [1]; [9]): 83% and 100%
- Worm viability score of individual worm, scale from 0 (dead) to 3 (motile) (adult H. polygyrus [1]; adult H. polygyrus, in vitro, aerobic, 72 hours, single worms): 2 and 1.5 and 1 (2×) and 0.5 and 0.75 (3×)
- # of Worms Affected (adult H. polygyrus [1]; aerobic, replicate 1, 24 hours after treatment, worms with score equal to or lower than 1.5): 6
- Worm viability score, individual worms (Worm1-Worm20) (adult H. polygyrus [1]; aerobic, replicate 1, 24 hours after treatment): 1.25 (5×) and 1
- # of Worms Affected (adult H. polygyrus [1]; aerobic, replicate 2, 24 hours after treatment, worms with score equal to or lower than 1.5): 3
- Worm viability score, individual worms (Worm1-Worm20) (adult H. polygyrus [1]; aerobic, replicate 2, 24 hours after treatment): 2 (2×) and 2.5 and 1 (2×) and 1.5
- Percent Worms Affected (adult H. polygyrus [2]; replicate 1): 100%
- Percent Worms Affected (adult H. polygyrus [2]; replicate 2): 100%
- # of Worms Affected (adult H. polygyrus [2]; replicate 1): 6
- Worm viability score, individual worms (Worm1-Worm20) (adult H. polygyrus [2]; replicate 1): 0.5 (3×) and 0 (2×) and 1
- # of Worms Affected (adult H. polygyrus [2]; replicate 2): 6
- Worm viability score, individual worms (Worm1-Worm20) (adult H. polygyrus [2]; replicate 2): 1.5 and 1 (5×)

Compound: COc1cccc2c1cc([N+](=O)[O-])c1c(C(=O)O)cc3c(c12)OCO3 [Aristolochic acid, reference compound]
- Hit Type (C. elegans): Dev. & Viability

Compound: CC[C@@]1(O)C(=O)OCc2c1cc1n(c2=O)Cc2cc3ccccc3nc2-1 [Camptothecin, reference compound]
- Hit Type (C. elegans; [10]): Dev. & Viability

Compound: Nc1nc2ccccc2n1CCCOc1ccccc1 [Compound 7915320]
- pIC50 [3, 11]: 5.16
- Log IC50 C. elegans complex I [3]: 0.84 µM
- pIC50 [3, 12]: 5.16
- CC50 at 2 days (in vitro; HEK293 Cell Viability Assay LC50, HEK293 cells, estimated from fitted dose-response curves): 60 µM
- LC50 (L1 wild-type C. elegans [4]): 23.7 µM
- pIC50 [5]: 4.81
- Log IC50 B. taurus complex I [5]: 1.19 µM
- LC50 [6, 13]: 150 µM
- LC50 [6, 14]: 150 µM
- Hit (L1 wild-type C. elegans [7]; active or inactive at 50 μM in C. elegans assay of RQ-dependent metabolism): non

Compound: Cn1c(Cc2ccc(Cl)cc2)nc2ccccc21 [Compound 9005666]
- pIC50 [3, 11]: 5.08
- Log IC50 C. elegans complex I [3]: 0.92 µM
- pIC50 ([3]; wild-type (N2) mitochondria, read-out: C. elegans Complex I IC50): 5.08
- pIC50 [3, 12]: 5.08
- CC50 at 2 days (in vitro): > 100 µM
- LC50 (L1 wild-type C. elegans [4]): 28.6 µM
- pIC50 [5]: 4.48
- Log IC50 B. taurus complex I [5]: 1.52 µM
- LC50 [6, 13]: 193 µM
- LC50 [6, 14]: 193 µM
- Screen "Hit" (L1 wild-type C. elegans [7]; 50 μM compound, […], hit = relative motility below 0.25 3 hours after removal of KCN): Y (hits were identified as compounds that reduced relative motility below 0.25 (75% reduction))

Compound: COC(=O)Nc1nc2ccc(C(=O)c3cccs3)cc2[nH]1 [Nocodazole, reference compound]
- Hit Type (C. elegans; [10]): Dev. & Viability
